Assay results as given in PubChem BioAssay (NCI).
Values joined by “and” are separate entries in the source; they are usually repeats but may differ in a detail not shown here. Equal entries are not always repeated.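 Five compound concentrations were applied to cells in 96-well plates for 48 hours; endpoints were derived by simple linear interpolation of the resulting dose-response curve. GI50 marks 50% less growth. TGI is the concentration that stops growth completely.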

How the values were obtained:
Test in all cases: growth of human tumour cells (NCI), 48 h
NCI-H522 lung = test system: NCI-H522 lung
RXF 393 renal = test system: RXF 393 renal
HCT-15 colon = test system: HCT-15 colon
SF-295 CNS = test system: SF-295 CNS
OVCAR-4 ovarian = test system: OVCAR-4 ovarian
TK-10 renal = test system: TK-10 renal
SK-MEL-2 melanoma = test system: SK-MEL-2 melanoma
786-0 renal = test system: 786-0 renal
SF-268 CNS = test system: SF-268 CNS
EKVX NSCLC = test system: EKVX NSCLC

SMILES | TGI (NCI-H522 lung) | TGI (RXF 393 renal) | TGI (HCT-15 colon) | TGI (SF-295 CNS) [µM] | TGI (OVCAR-4 ovarian) | TGI (TK-10 renal) [µM] | TGI (SK-MEL-2 melanoma) | TGI (786-0 renal) [µM] | TGI (SF-268 CNS) | TGI (EKVX NSCLC) | GI50 (NCI-H522 lung) [µM] | GI50 (RXF 393 renal) | GI50 (HCT-15 colon) | GI50 (SF-295 CNS) [µM] | GI50 (OVCAR-4 ovarian) | GI50 (TK-10 renal) [µM] | GI50 (SK-MEL-2 melanoma) [µM] | GI50 (786-0 renal) [µM] | GI50 (SF-268 CNS) [µM] | GI50 (EKVX NSCLC) [µM]
CCOC(=O)C1SC(=Nc2ccc(Cl)cc2C)N=C1C (stereo unspecified) | 27 µM | 35.8 µM | 37.1 µM | 52.9 | 56.2 µM | 65.2 | 35.8 µM | 32.6 | 94.5 µM | 75.2 µM | – | – | – | – | – | – | – | – | – | –
CCOc1c(C#N)c2c(N)ncnc2n1C1OC(CO)C(O)C1O (stereo unspecified) | 39.9 µM | 6.64 µM | > 100 µM | > 100 | > 57.2 µM | > 28 | 28.3 µM | > 24.9 | 65.4 µM | > 100 µM | 8.18 | 2.27 µM | 2.15 µM | 4.63 | 3.75 µM | 3.05 | 8.61 | 3.76 | 3.37 | 4.74
COC(=O)C(=O)C(C(=O)C(=O)Nc1ccc(C)cc1)c1nc2ccc(C(=O)c3ccccc3)cc2[nH]c1=O (stereo unspecified) | > 100 µM | > 100 µM | > 100 µM | > 100 | > 100 µM | > 100 | > 100 µM | > 100 | > 100 µM | > 100 µM | – | – | – | – | – | – | – | – | – | –
CN(O)C(=S)c1ccccc1 | 0.688 µM | 14.5 µM | 37.6 µM | 35.9 | 19.6 µM | > 100 | > 33.1 µM | 14.3 | > 100 µM | > 95.2 µM | – | – | – | – | – | – | – | – | – | –
N#Cc1c(N)nc(N2CCSCC2)c(C#N)c1-c1ccc(O)cc1 | 52.7 µM | > 100 µM | 54.1 µM | 55.7 | 67.6 µM | > 100 | > 100 µM | 30.4 | 56.5 µM | > 100 µM | 22 | 35.3 µM | 17.6 µM | 18.4 | 18 µM | 30.4 | 51 | 13.5 | 18.2 | 27.5
C1CCN2CC3CCCN4CCCC(C2C1)C34 (stereo unspecified) | > 100 µM | > 100 µM | > 100 µM | > 100 | > 100 µM | > 100 | > 100 µM | > 100 | > 100 µM | > 100 µM | – | – | – | – | > 100 µM and 24.7 µM | – | – | – | – | –
O=C1C(=O)N(c2cccc(C(F)(F)F)c2)C(=O)C(=O)C1c1nc2ccccc2s1 | > 100 µM | > 100 µM | > 100 µM | > 100 | > 100 µM | > 100 | > 100 µM | > 100 | > 100 µM | > 100 µM | – | – | – | – | – | – | – | – | – | –
CC(CCCC1SCC2NC(=O)NC21)C(=O)O (stereo unspecified) | > 100 µM | > 100 µM | > 100 µM | > 100 | > 100 µM | > 100 | > 100 µM | > 100 | > 100 µM | > 100 µM | – | – | – | – | – | – | – | – | – | –
COc1ccc(/C=C2\CC(C)CC3C2=NN(c2ccccc2)C3c2ccc(OC)c(OC)c2)cc1OC (stereo unspecified) | > 100 µM | > 100 µM | 4.38 µM | 57.6 | > 100 µM | > 100 | > 100 µM | 37.3 | 37.2 µM | > 100 µM | 4.83 | > 100 µM | 1.98 µM | 3.59 | 3.65 µM | 5.78 | 8.8 | 5.24 | 3.31 | 5.61
CC1CC(C)C2=NOS3=C2C1=NO3 (stereo unspecified) | > 100 µM | > 100 µM | > 100 µM | > 100 | > 100 µM | > 100 | > 100 µM | > 100 | > 100 µM | > 100 µM | – | – | – | – | – | – | – | – | – | –
COCOCC[C@@H]1CC=CC(NC(=O)OCc2ccccc2)C1/C=C/C(=O)CCC1OCCO1 (stereo partly specified) | 34.7 µM | > 75.9 µM | 32.2 µM | > 100 | > 74.4 µM | > 100 | > 76.5 µM | > 100 | 99 µM | > 100 µM | – | – | – | – | – | – | – | – | – | –
C=C1C(=O)OC2C1C(OC(=O)/C(C)=C\C)CC1(CO1)C1C(O)C=C(C)C21O (stereo unspecified) | 2.3 µM | 7.09 µM | 11 µM | 41.7 | 20.7 µM | 9.35 | 12.5 µM | 8.5 | 17.4 µM | 26.5 µM | – | – | – | – | – | – | – | – | – | –
C[C@@H]1CC[C@@H]2[C@@H](C)C[C@H]3[C@@H]4C(C)(C)OC(=O)[C@]4(C)C(=O)[C@@]23C1=O | > 100 µM | > 100 µM | > 100 µM | > 100 | > 100 µM | > 100 | > 100 µM | > 100 | > 100 µM | > 100 µM | > 100 | > 100 µM | 16.4 µM | – | – | – | > 100 | – | – | –
Cc1nc(Nc2ccccc2)sc1C(=O)CC(=O)C(=O)NC12CC3CC(CC(C3)C1)C2 | > 100 µM | > 100 µM | > 100 µM | > 100 | > 100 µM | > 100 | > 100 µM | > 100 | > 100 µM | 73 µM | – | – | – | – | – | – | – | – | – | –
CCCCCCN(C)Cc1ccc(OCCOc2ccc(CN(C)CCCCCC)cc2)cc1 | 2.25 µM | 2.15 µM | 2.83 µM | 2.76 | 2.74 µM | 2.6 | 3.08 µM | 2.8 | 11.8 µM | 15.1 µM | 0.944 | 0.834 µM | 0.984 µM | 1.23 | 1.17 µM | 1.29 | 1.61 | 1.44 | 2.59 | 2.47
CC(=O)ON(C(C)=O)C1C(COC(c2ccccc2)(c2ccccc2)c2ccccc2)OC2OC3(CCCC3)OC21 (stereo unspecified) | 6.26 µM | 60.4 µM | > 100 µM | > 100 | > 100 µM | > 100 | > 100 µM | > 75.2 | > 100 µM | > 100 µM | – | – | – | – | – | – | – | – | – | –
COc1ccc(/C=C\c2cc(OC)c(OC)c(OC)c2)c(O)c1O | 0.262 µM and 0.823 µM | 36 µM and 6.31 µM | > 57.5 µM and 8.27 µM | – | 17 µM and 63.5 µM | 55.8 | 33.3 µM and 7.62 µM | 16.3 | 37.8 µM and 32 µM | 70.1 µM and 96.1 µM | – | < 0.0322 µM and 0.111 µM | 0.0628 µM and 0.0643 µM | 0.0286 | 0.959 µM | – | 0.0705 | – | 0.249 | 3.76
